# Experimental data: US20180319753A1, “MICROBIOCIDAL OXADIAZOLE DERIVATIVES” (SYNGENTA PARTICIPATIONS AG, priority 2015, published 2018)
# What was measured:
# Phakopsora pachyrhizi = Phakopsora pachyrhizi / soybean / leaf disc preventative (Asian soybean rust); assay type: in vivo; settings: foliar, 200 ppm in the applied formulation, soybean leaf disks, inoculated one day after application, assessed 12 to 14 days after application, read-out: disease control compared to untreated control leaf disks
# Experimental: Leaf disks or leaf segments of various plant species are cut from plants grown in a greenhouse. The cut leaf disks or segments are placed in multiwell plates (24-well format) onto water agar. The leaf disks are sprayed with a test solution before (preventative) or after (curative) inoculation. Compounds to be tested are prepared as DMSO solutions (max. 10 mg/ml) which are diluted to the appropriate concentration with 0.025% Tween20 just before spraying. The inoculated leaf disks or segments are incubated under defined conditions (temperature, relative humidity, light, etc.) according to the respective test system. A single evaluation of disease level is carried out 3 to 14 days after inoculation, depending on the pathosystem. Percent disease control relative to the untreated check leaf disks or segments is then calculated.
# Soybean leaf disks are placed on water agar in multiwell plates (24-well format) and sprayed with the formulated test compound diluted in water. One day after application leaf discs are inoculated by spraying a spore suspension on the lower leaf surface. After an incubation period in a climate cabinet of 24-36 hours in darkness at 20° C. and 75% rh leaf disc are kept at 20° C. with 12 h light/day and 75% rh. The activity of a compound is assessed as percent disease control compared to untreated when an appropriate level of disease damage appears in untreated check leaf disks (12 to 14 days after application).
# The following compounds at 200 ppm in the applied formulation give at least 80% disease control in this test when compared to untreated control leaf disks under the same conditions, which show extensive disease development.
# [1] = tested on: Glomerella lagenarium (Colletotrichum lagenarium); experiment: Glomerella lagenarium (Colletotrichum lagenarium) liquid culture / cucumber / preventative (anthracnose); assay type: cell-based; settings: Colletotrichum orbiculare; 20 ppm in the applied formulation; liquid culture in PDB, 24° C.; 3 to 4 days after application; read-out: disease control compared to untreated control (inhibition of growth measured photometrically)
# Experimental: Mycelia fragments or conidia suspensions of a fungus prepared either freshly from liquid cultures of the fungus or from cryogenic storage, are directly mixed into nutrient broth. DMSO solutions of the test compound (max. 10 mg/ml) are diluted with 0.025% Tween20 by a factor of 50 and 10 μl of this solution is pipetted into a microtiter plate (96-well format). The nutrient broth containing the fungal spores/mycelia fragments is then added to give an end concentration of the tested compound. The test plates are incubated in the dark at 24° C. and 96% relative humidity. The inhibition of fungal growth is determined photometrically after 2 to 7 days, depending on the pathosystem, and percent antifungal activity relative to the untreated check is calculated.
# Conidia of the fungus from cryogenic storage are directly mixed into nutrient broth (PDB—potato dextrose broth). After placing a (DMSO) solution of test compound into a microtiter plate (96-well format), the nutrient broth containing the fungal spores is added. The test plates are incubated at 24° C. and the inhibition of growth is measured photometrically 3 to 4 days after application.
# The following compounds at 20 ppm in the applied formulation give at least 80% disease control in this test when compared to untreated control under the same conditions, which show extensive disease development.
Structure (SMILES),melting point,pest or weed control at 200 ppm (Phakopsora pachyrhizi),inhibition at 20 ppm [1]
"FC(F)(F)c1nc(-c2ccc(SCc3ccccc3)cc2)no1 [Compound 1.3, 3-(4-benzylsulfanylphenyl)-5-(trifluoromethyl)-1,2,4-oxadiazole]",83 to 87 °C,,
"FC(F)(F)CSc1ccc(-c2noc(C(F)(F)F)n2)cc1 [Compound 1.4, 3-[4-(2,2,2-trifluoroethylsulfanyl)phenyl]-5-(trifluoromethyl)-1,2,4-oxadiazole]",,≥ 80%,
"Fc1cccc(F)c1CSc1ccc(-c2noc(C(F)(F)F)n2)cc1 [Compound 1.6, 3-[4-[(2,6-difluorophenyl)methylsulfanyl]phenyl]-5-(trifluoromethyl)-1,2,4-oxadiazole]",,≥ 80%,
"Fc1ccc(Sc2ccc(-c3noc(C(F)(F)F)n3)cc2)cc1 [Compound 1.9, 3-[4-(4-fluorophenyl)sulfanylphenyl]-5-(trifluoromethyl)-1,2,4-oxadiazole]",64 to 67 °C,≥ 80%,
"Fc1ccc(Sc2ccc(-c3noc(C(F)(F)F)n3)cc2)c(F)c1 [Compound 1.10, 3-[4-(2,4-difluorophenyl)sulfanylphenyl]-5-(trifluoromethyl)-1,2,4-oxadiazole]",72 to 80 °C,≥ 80%,≥ 80%
"COc1ccccc1Sc1ccc(-c2noc(C(F)(F)F)n2)cc1 [Compound 1.11, 3-[4-(2-methoxyphenyl)sulfanyl-phenyl]-5-(trifluoromethyl)-1,2,4-oxadiazole]",,≥ 80%,
"FC(F)(F)c1nc(-c2ccc(CSc3ccccc3)cc2)no1 [Compound 1.13, 3-[4-(phenylsulfanylmethyl)phenyl]-5-(trifluoromethyl)-1,2,4-oxadiazole]",86 to 91 °C,≥ 80%,
"CC(C)(C)Sc1ccc(-c2noc(C(F)(F)F)n2)cc1 [Compound 1.16, 3-(4-tert-butylsulfanylphenyl)-5-(trifluoromethyl)-1,2,4-oxadiazole]",,,≥ 80%
"Cc1ccccc1Sc1ccc(-c2noc(C(F)(F)F)n2)cc1 [Compound 1.17, 3-[4-(o-tolylsulfanyl)phenyl]-5-(trifluoromethyl)-1,2,4-oxadiazole]",,≥ 80%,
"FC(F)(F)c1nc(-c2ccc(Sc3ccccc3Cl)cc2)no1 [Compound 1.18, 3-[4-(2-chlorophenyl)sulfanylphenyl]-5-(trifluoromethyl)-1,2,4-oxadiazole]",,≥ 80%,
"Cc1ccccc1Sc1ccc(-c2noc(C(F)(F)F)n2)cn1 [Compound 1.19, 3-[6-(o-tolylsulfanyl)-3-pyridyl]-5-(trifluoromethyl)-1,2,4-oxadiazole]",,,≥ 80%
"Fc1ccccc1Sc1ccc(-c2noc(C(F)(F)F)n2)cn1 [Compound 1.20, 3-[6-(2-fluorophenyl)sulfanyl-3-pyridyl]-5-(trifluoromethyl)-1,2,4-oxadiazole]",,≥ 80%,≥ 80%
"FC(F)(F)c1nc(-c2ccc(SCc3ccccc3)nc2)no1 [Compound 1.21, 3-(6-benzylsulfanyl-3-pyridyl)-5-(trifluoromethyl)-1,2,4-oxadiazole]",66 to 68 °C,,≥ 80%
"Cc1cc(-c2noc(C(F)(F)F)n2)ccc1SCc1ccccc1 [Compound 1.22, 3-(4-benzylsulfanyl-3-methyl-phenyl)-5-(trifluoromethyl)-1,2,4-oxadiazole]",66 to 72 °C,,
"Fc1cc(-c2noc(C(F)(F)F)n2)cc(F)c1CSc1ccccc1 [Compound 1.27, 3-[3,5-difluoro-4-(phenylsulfanylmethyl)phenyl]-5-(trifluoromethyl)-1,2,4-oxadiazole]",50 to 55 °C,,≥ 80%
"O=S(=O)(c1ccc(-c2noc(C(F)(F)F)n2)cc1)c1ccc(F)cc1F [Compound 3.4, 3-[4-(2,4-difluorophenyl)sulfonyl-phenyl]-5-(trifluoromethyl)-1,2,4-oxadiazole]",,≥ 80%,≥ 80%
"O=S(=O)(c1ccc(-c2noc(C(F)(F)F)n2)cc1)c1ccccc1Cl [Compound 3.20, 3-[4-(2-chlorophenyl)sulfonylphenyl]-5-(trifluoromethyl)-1,2,4-oxadiazole]",,≥ 80%,≥ 80%

# More lines, main results first:
melting point,Structure (SMILES),pest or weed control at 200 ppm (Phakopsora pachyrhizi),inhibition at 20 ppm [1]
178 to 181 °C,"[O-][S+](Cc1ccccc1)c1ccc(-c2noc(C(F)(F)F)n2)cc1 (stereo not drawn) [Compound 2.4, 3-(4-benzylsulfinylphenyl)-5-(trifluoromethyl)-1,2,4-oxadiazole]",,≥ 80%
80 to 86 °C,"[O-][S+](c1ccc(-c2noc(C(F)(F)F)n2)cc1)c1ccccc1C(F)(F)F (stereo not drawn) [Compound 2.21, 5-(trifluoromethyl)-3-[4-[2-(trifluoromethyl)phenyl]sulfinylphenyl]-1,2,4-oxadiazole]",≥ 80%,
122 to 125 °C,"[O-][S+](Cc1ccccc1)c1ccc(-c2noc(C(F)(F)F)n2)cn1 (stereo not drawn) [Compound 2.27, 3-(6-benzylsulfinyl-3-pyridyl)-5-(trifluoromethyl)-1,2,4-oxadiazole]",,≥ 80%
149 to 156 °C,"[O-][S+](Cc1ccc(-c2noc(C(F)(F)F)n2)c(F)c1)c1ccccc1 (stereo not drawn) [Compound 2.30, 3-[4-(benzenesulfinylmethyl)-2-fluoro-phenyl]-5-(trifluoromethyl)-1,2,4-oxadiazole]",,
117 to 122 °C,"O=S(=O)(CC(F)(F)F)c1ccc(-c2noc(C(F)(F)F)n2)cc1 [Compound 3.5, 3-[4-(2,2,2-trifluoroethylsulfonyl)phenyl]-5-(trifluoromethyl)-1,2,4-oxadiazole]",,≥ 80%
118 to 125 °C,"Cc1ccc(C)c(S(=O)(=O)c2ccc(-c3noc(C(F)(F)F)n3)cc2)c1 [Compound 3.6, 3-[4-(2,5-dimethylphenyl)sulfonyl-phenyl]-5-(trifluoromethyl)-1,2,4-oxadiazole]",,≥ 80%
117 to 124 °C,"Cc1cc(-c2noc(C(F)(F)F)n2)ccc1S(=O)(=O)c1ccccc1 [Compound 3.8, 3-[4-(benzenesulfonyl)-3-methyl-phenyl]-5-(trifluoromethyl)-1,2,4-oxadiazole]",,≥ 80%
150 to 154 °C,"O=S(=O)(Cc1ccc(-c2noc(C(F)(F)F)n2)cc1)c1ccccc1F [Compound 3.11, 3-[4-[(2-fluorophenyl)sulfonylmethyl]phenyl]-5-(trifluoromethyl)-1,2,4-oxadiazole]",≥ 80%,
133 to 136 °C,"CC(C)(C)S(=O)(=O)c1ccc(-c2noc(C(F)(F)F)n2)cc1 [Compound 3.13, 3-(4-tert-butylsulfonylphenyl)-5-(trifluoromethyl)-1,2,4-oxadiazole]",,≥ 80%
75 to 80 °C,"CCC(C)CS(=O)(=O)c1ccc(-c2noc(C(F)(F)F)n2)cc1 (stereo not drawn) [Compound 3.15, 3-[4-(2-methylbutylsulfonyl)phenyl]-5-(trifluoromethyl)-1,2,4-oxadiazole]",,≥ 80%
172 to 178 °C,"O=S(=O)(Cc1ccc(-c2noc(C(F)(F)F)n2)c(F)c1)c1ccccc1 [Compound 3.22, 3-[4-(benzenesulfonylmethyl)-2-fluoro-phenyl]-5-(trifluoromethyl)-1,2,4-oxadiazole]",≥ 80%,
187 to 191 °C,"O=S(=O)(Cc1ccc(-c2noc(C(F)(F)F)n2)c(F)c1F)c1ccccc1 [Compound 3.23, 3-[4-(benzenesulfonylmethyl)-2,3-difluoro-phenyl]-5-(trifluoromethyl)-1,2,4-oxadiazole]",≥ 80%,
135 to 140 °C,"O=S(=O)(Cc1c(F)cc(-c2noc(C(F)(F)F)n2)cc1F)c1ccccc1 [Compound 3.24, 3-[4-(benzenesulfonylmethyl)-3,5-difluoro-phenyl]-5-(trifluoromethyl)-1,2,4-oxadiazole]",≥ 80%,
